Read-outs that look alike come from different tables or passages of the source.

This is an account of results in article PMC10892093 (Pharmaceutics, 2024).

For data set [1] the following is noted: cited from earlier work.
In data set [2] the test system is UGTs (R-oxazepam glucuronidation in HKM). Description: Inhibition of R- and S-oxazepam glucuronidation in human kidney microsomes. The conditions noted are these: human, human kidney microsomes. As for the experimental part: (§1) A Waters Corp BEH C18 Acquity UPLC column (1.7 µM, 2.1 × 100 mm) was used at a constant temperature of 40 °C for chromatographic separation. An elution gradient was used for 6.5 min with mobile phases A (5 mM ammonium formate) and B (100% methanol) under the following conditions: 90% A for 0.5 min, followed by a linear gradient for 3 min to 60% A, 1 min at 5% A, and re-equilibration for 1 min at 90% A.
(§2) The reaction was initiated by the addition of 4 mM UDPGA as the cofactor and incubated for 2 h at 37 °C. The reaction was terminated by adding 30 µL of an ice-cold stop solution (acetonitrile/methanol; 1:1). The reaction mixtures were centrifuged at 17,000× g for 30 min at 4 °C, and the supernatant was transferred to UPLC sample glass vial for analysis using UPLC–MS/MS (described above). […] As a positive control for inhibition assays, ketoconazole (10 μM and 100 µM) was used as a potential inhibitor of the UGTs 1A9, 2B7, and 2B15. Reactions containing only the cannabinoid vehicle (3% methanol) and without any inhibitor (cannabinoids) were used as a baseline reaction for 100% enzyme activity, while a reaction without UDPGA was used as a negative control. All experiments were performed in three independent experiments.
(§3) Determination of IC50 and Ki Values. […] The nonspecific binding constants (fu,inc) for cannabinoids in HEK293 microsomes, HLM, and HKM were previously determined and used to calculate the inhibition by unbound (‘free’) cannabinoid in each reaction. A nonlinear regression analysis and the following equation were used to calculate the IC50 values:(1) y = Bottom +Top − Bottom / 1 + 10^x − LogIC50A where ‘Bottom’ is the maximum observed inhibition (lowest percent activity) and ‘Top’ is the minimum observed inhibition (highest percent activity) for a given cannabinoid.

For data set [3], the system named is UGTs (S-oxazepam glucuronidation in HKM). The data set is described as above. The conditions noted are these: human, human kidney microsomes. As for the experimental part:
as §1, §2, §3

Data set [4] relates to UGTs (S-oxazepam glucuronidation in HLM). Description: Inhibition of R- and S-oxazepam glucuronidation in human liver microsomes. The conditions noted are these: human, human liver microsomes. The protocol: as §1, §2, §3
(§4) The inhibition constant (Ki) was generated from the in vitro IC50 values assuming competitive inhibition (based on the Cheng–Prusoff equation; [49]). Considering that there have been no reports of the irreversible inhibition (e.g., mechanism-based inhibition) of UGTs, competitive inhibition was assumed as the worst-case scenario (highest inhibition) among all feasible types of reversible inhibitions. The substrate concentration used in the incubations was below the reported Km; therefore, the Ki values were predicted using Equation (2):(2) Ki=IC50/S/Km+1 where Km is Michaelis–Menten constant for the substrate, S is the substrate concentration, and IC50 is half-maximal inhibitory concentration.
In general terms: Liver microsomes are a subcellular fraction often used to study metabolism.

Data set [5] relates to UGTs (R-oxazepam glucuronidation in HLM). Described as above. The conditions noted are these: human, human liver microsomes. The protocol: as §1, §2, §3, §4
The target in data set [6] is human liver microsomes (HLM). The data set is described as above. The protocol: as §1, §2, §3, §4
The conditions of data set [7]: cited from earlier work. The source holds these as a separate data set.
Data set [8] deals with human kidney microsomes (HKM). Put plainly: Inhibition of R- and S-oxazepam glucuronidation in human kidney microsomes. As for the experimental part: as §1, §2, §3
[9] abbreviates: pH 7.4, IC50, R-Oxazepam Glucuronide.
Setting [10] is: pH 7.4, IC50,u, R-Oxazepam Glucuronide, IC50 corrected with fu,inc.
[11] abbreviates: pH 7.4, IC50, S-Oxazepam Glucuronide.
Setting [12] is: pH 7.4, IC50,u, S-Oxazepam Glucuronide, IC50 corrected with fu,inc.
Setting [13] is: read-out: Ki, R-Oxazepam Glucuronide, generated from IC50 assuming competitive inhibition.
The mark [14] stands for this setting: read-out: Ki, S-Oxazepam Glucuronide, generated from IC50 assuming competitive inhibition.
Setting [15] is: read-out: Ki,u, R-Oxazepam Glucuronide, Ki corrected with fu,inc.
Where [16] appears, read: read-out: Ki,u, S-Oxazepam Glucuronide, Ki corrected with fu,inc.
Setting [17] is: read-out: IC50, R-Oxazepam Glucuronide.
[18] abbreviates: read-out: IC50, S-Oxazepam Glucuronide.
[19] abbreviates: read-out: IC50,u, R-Oxazepam Glucuronide, IC50 corrected with fu,inc.
[20] abbreviates: read-out: IC50,u, S-Oxazepam Glucuronide, IC50 corrected with fu,inc.

In the case of `C=C(C)[C@@H]1CCC(C)=C[C@H]1c1c(O)cc(CCCCC)cc1O` [CBD, cannabidiol], the “Increase in N-desmethylclobazam concentration” value in data set [1] (coadministration of clobazam, stiripentol, and CBD 750 mg twice daily) is given as 3.4 fold. Moreover, the “Increase in the level of 1-hydroxymidazolam” value in data set [1] (oral CBD 750 mg twice daily with midazolam) is 12%. The IC50 (usually the concentration needed to halve the response being measured) at 2 h amounted to 5.9 ± 1 µM in data set [2] (setting [9]); 0.36 ± 0.062 µM in data set [2] (setting [10]); 16 ± 7.7 µM in data set [3] (setting [11]); 0.98 ± 0.48 µM in data set [3] (setting [12]); 87 ± 46 µM in data set [4] (setting [11]); 4.5 ± 2.4 µM in data set [4] (setting [12]). Also, the values for the 50% inhibitory concentration (IC50) at 2 h in data set [5] (setting [9]) and in data set [5] (setting [10]) were 16 ± 7.7 µM and 0.84 ± 0.39 µM, respectively. The Ki – broadly, the dissociation constant of the complex between target and ligand, obtained from inhibition or displacement – in data set [6] (setting [13]) worked out at 16 ± 7.4 µM; in data set [6] (setting [14]), 72 ± 32 µM; in data set [6] (setting [15]) it was 0.82 ± 0.38 µM; in data set [6] (setting [16]) it was 3.7 ± 1.6 µM. For the same compound, the maximum concentration (Cmax) (usually the peak of the concentration-time curve) was 4400 nM in data set [7] (1500 mg dose of CBD following a high-fat diet); 6.4 nM in data set [7] (CBD 2 mg, inhalation); 350 nM in data set [7] (CBD 19 mg, inhalation); 89 nM in data set [7] (CBD 70 mg, oral); 890 nM in data set [7] (CBD 700 mg, oral); 2500 nM in data set [7] (CBD 2000 mg, oral).
With “11-hydroxy-Δ^9-tetrahydrocannabinol [11-OH-THC]”, the IC50 in data set [8] (setting [17]) is 18 ± 4.3 µM; in data set [8] (setting [18]), 19 ± 2 µM; in data set [8] (setting [19]), 1.7 ± 0.4 µM; in data set [8] (setting [20]), 1.8 ± 0.19 µM; in data set [6] (setting [17]), 18 ± 5 µM; in data set [6] (setting [18]) it was 41 ± 25 µM. Also, the figures for the concentration for half-maximal inhibition (IC50) in data set [6] (setting [19]) and in data set [6] (setting [20]) were 1.7 ± 0.47 µM and 3.9 ± 2.4 µM, respectively. The Ki in data set [6] (setting [13]) came to 18 ± 4.9 µM; in data set [6] (setting [14]), 34 ± 21 µM; in data set [6] (setting [15]), 1.7 ± 0.46 µM; in data set [6] (setting [16]), 3.2 ± 2 µM. The peak concentration (Cmax) in data set [7] (THC dose 20 mg, oral) is 15 nM; in data set [7] (THC dose 25 mg, inhalation) it was 12 nM; in data set [7] (THC dose 70 mg, inhalation) it was 32 nM; in data set [7] (THC dose 100 mg, inhalation) it was 46 nM; in data set [7] (THC dose 130 mg, oral) it was 100 nM; in data set [7] (THC dose 160 mg, oral), 120 nM. The peak concentration (Cmax) was 90 nM in data set [7] (after smoking) and 160 nM in data set [7] (oral ingestion of 50 mg THC).
As to `CCCCCc1cc(O)c2c(c1)OC(C)(C)[C@@H]1CCC(C)=C[C@@H]21` [THC, Δ^9-tetrahydrocannabinol], the IC50 in data set [8] (setting [17]) was 94 ± 26 µM; in data set [8] (setting [18]), above 100 µM; in data set [8] (setting [20]), above 4.8 µM; in data set [6] (setting [17]), 34 ± 16 µM; in data set [6] (setting [18]) it was above 100 µM; in data set [6] (setting [19]), 1.6 ± 0.77 µM. For the same compound, the Ki is 33 ± 15 µM in data set [6] (setting [13]), above 83 µM in data set [6] (setting [14]), 1.6 ± 0.74 µM in data set [6] (setting [15]) and above 3.2 µM in data set [6] (setting [16]). Besides, the peak concentration (Cmax) was 30 nM in data set [7] (THC dose 20 mg, oral); 250 nM in data set [7] (THC dose 25 mg, inhalation); 700 nM in data set [7] (THC dose 70 mg, inhalation); 990 nM in data set [7] (THC dose 100 mg, inhalation); 200 nM in data set [7] (THC dose 130 mg, oral); 240 nM in data set [7] (THC dose 160 mg, oral). For the same compound, the peak concentration (Cmax) was 640 nM in data set [7] (after smoking), 530 nM in data set [7] (oral ingestion of 50 mg THC) and 515 nM in data set [7] (smoking cannabis cigarettes with 3.55% THC).
